Assay results from US12077503B2, “Substituted cyclic amides and their use as herbicides” (FMC CORPORATION, priority 2015, dated 2024).

Tests used:
Assay type in all cases: in vivo
[1] = test system: ivy-leaved morning glory (Ipomoea hederacea); assay: Test G Post-Emergence Protocol; settings: Ipomoea, post-emergence, 312 h
Method in brief: (§1)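 Sow in soil; grow 8 d (24/16 °C, 14 h light, 65% humidity); spray 15.625/62.5/250 g/ha in acetone:water 50:50 + 0.5% Tween 20; grow on, water twice daily; score damage 0–100 at 13 d.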

[2] = test system: velvetleaf (Abutilon theophrasti); assay: Test G Post-Emergence Protocol; settings: Abutilon theophrasti, post-emergence, 312 h
Method in brief: as §1

[3] = test system: giant foxtail (Setaria faberi); assay: Test G Post-Emergence Protocol; settings: Setaria faberi, post-emergence, 312 h
Method in brief: as §1

[4] = test system: redroot pigweed (Amaranthus retroflexus); assay: Test G Post-Emergence Protocol; settings: Amaranthus retroflexus, post-emergence, 312 h
Method in brief: as §1

corn (Zea mays) [5] = assay: Test G Post-Emergence Protocol; settings: Zea mays, post-emergence, 312 h
Method in brief: as §1

[6] = test system: barnyardgrass (Echinochloa crus-galli); assay: Test G Post-Emergence Protocol; settings: Echinochloa crus-galli, post-emergence, 312 h
Method in brief: as §1

[7] = test system: ivy-leaved morning glory (Ipomoea hederacea); assay: Test G Pre-Emergence Protocol; settings: Ipomoea, pre-emergence, 312 h, evaluated after 13 days
Method in brief: (§2)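 Test compound in 0.5% Tween 20 acetone/water (50:50) was applied at three rates (15.625, 62.5, 250 g/ha) to soil sown one day earlier. After 13 days plants were scored for injury, where 0 means unaffected and 100 means completely damaged.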

[8] = test system: velvetleaf (Abutilon theophrasti); assay: Test G Pre-Emergence Protocol; settings: Abutilon theophrasti, pre-emergence, 312 h, evaluated after 13 days
Method in brief: as §2

[9] = test system: giant foxtail (Setaria faberi); assay: Test G Pre-Emergence Protocol; settings: Setaria faberi, pre-emergence, 312 h, evaluated after 13 days
Method in brief: as §2

[10] = test system: redroot pigweed (Amaranthus retroflexus); assay: Test G Pre-Emergence Protocol; settings: Amaranthus retroflexus, pre-emergence, 312 h, evaluated after 13 days
Method in brief: as §2

corn (Zea mays) [11] = assay: Test G Pre-Emergence Protocol; settings: Zea mays, pre-emergence, 312 h, evaluated after 13 days
Method in brief: as §2

[12] = test system: barnyardgrass (Echinochloa crus-galli); assay: Test G Pre-Emergence Protocol; settings: Echinochloa crus-galli, pre-emergence, 312 h, evaluated after 13 days
Method in brief: as §2

Compound `CN1C[C@H](c2ccc(C(F)(F)F)cc2)[C@@H](C(=O)Nc2ncccc2[N+](=O)[O-])C1=O` (racemic) [Compound 1431] has a pest or weed control at 15.625 g/ha ([1]; 15.625 g ai/ha, evaluated after 13 days (100=total damage to plant; 0=no damage to plant), read-out: Morningglory, Ivy-leaved damage rating) of 0%, a pest or weed control at 62.5 g/ha ([1]; 62.5 g ai/ha, evaluated after 13 days, read-out: Morningglory, Ivy-leaved damage rating (100=total damage to plant; 0=no damage to plant)) of 0% and a pest or weed control at 250 g/ha ([1]; 250 g ai/ha, evaluated after 13 days, read-out: damage to plant, Morningglory, Ivy-leaved (100=total damage to plant; 0=no damage to plant)) of 0%. For the same compound, the pest or weed control at 15.625 g/ha ([2]; 15.625 g ai/ha, evaluated after 13 days (100=total damage to plant; 0=no damage to plant), read-out: Velvetleaf damage rating) was 0%, the pest or weed control at 62.5 g/ha ([2]; 62.5 g ai/ha, evaluated after 13 days, read-out: Velvetleaf damage rating (100=total damage to plant; 0=no damage to plant)) was 0% and the pest or weed control at 250 g/ha ([2]; 250 g ai/ha, evaluated after 13 days, read-out: damage to plant, Velvetleaf (100=total damage to plant; 0=no damage to plant)) was 10%. The pest or weed control at 15.625 g/ha ([3]; 15.625 g ai/ha, evaluated after 13 days (100=total damage to plant; 0=no damage to plant), read-out: Foxtail, Giant damage rating) was 0%, the pest or weed control at 62.5 g/ha ([3]; 62.5 g ai/ha, evaluated after 13 days, read-out: Foxtail, Giant damage rating (100=total damage to plant; 0=no damage to plant)) was 0% and the pest or weed control at 250 g/ha ([3]; 250 g ai/ha, evaluated after 13 days, read-out: damage to plant, Foxtail, Giant (100=total damage to plant; 0=no damage to plant)) was 0%. The pest or weed control at 15.625 g/ha ([4]; 15.625 g ai/ha, evaluated after 13 days (100=total damage to plant; 0=no damage to plant), read-out: Pigweed, Redroot damage rating) was 0%, the pest or weed control at 62.5 g/ha ([4]; 62.5 g ai/ha, evaluated after 13 days, read-out: Pigweed, Redroot damage rating (100=total damage to plant; 0=no damage to plant)) was 0% and the pest or weed control at 250 g/ha ([4]; 250 g ai/ha, evaluated after 13 days, read-out: damage to plant, Pigweed, Redroot (100=total damage to plant; 0=no damage to plant)) was 40%. It also gave a plant injury at 15.625 g/ha (corn (Zea mays) [5]; 15.625 g ai/ha, evaluated after 13 days (100=total damage to plant; 0=no damage to plant), read-out: Corn damage rating) of 0%, a plant injury at 62.5 g/ha (corn (Zea mays) [5]; 62.5 g ai/ha, evaluated after 13 days, read-out: Corn damage rating (100=total damage to plant; 0=no damage to plant)) of 0% and a plant injury at 250 g/ha (corn (Zea mays) [5]; 250 g ai/ha, evaluated after 13 days, read-out: damage to plant, Corn (100=total damage to plant; 0=no damage to plant)) of 0%. The pest or weed control at 15.625 g/ha ([6]; 15.625 g ai/ha, evaluated after 13 days (100=total damage to plant; 0=no damage to plant), read-out: Barnyardgrass damage rating) was 0%, the pest or weed control at 62.5 g/ha ([6]; 62.5 g ai/ha, evaluated after 13 days, read-out: Barnyardgrass damage rating (100=total damage to plant; 0=no damage to plant)) was 0% and the pest or weed control at 250 g/ha ([6]; 250 g ai/ha, evaluated after 13 days, read-out: damage to plant, Barnyardgrass (100=total damage to plant; 0=no damage to plant)) was 0%. The pest or weed control at 15.625 g/ha ([7]; 15.625 g ai/ha, read-out: Morning-glory, Ivy-leaved damage rating (100=total damage to plant; 0=no damage to plant)) was 0%, the pest or weed control at 62.5 g/ha ([7]; 62.5 g ai/ha, 100=total damage to plant, 0=no damage to plant, read-out: plant damage rating, Morningglory, Ivy-leaved) was 0% and the pest or weed control at 250 g/ha ([7]; 250 g ai/ha, read-out: Morningglory, Ivy-leaved damage rating (100=total damage to plant; 0=no damage to plant)) was 0%. For the same compound, the pest or weed control at 15.625 g/ha ([8]; 15.625 g ai/ha, read-out: Velvetleaf damage rating (100=total damage to plant; 0=no damage to plant)) was 0%, the pest or weed control at 62.5 g/ha ([8]; 62.5 g ai/ha, 100=total damage to plant, 0=no damage to plant, read-out: plant damage rating, Velvetleaf) was 0% and the pest or weed control at 250 g/ha ([8]; 250 g ai/ha, read-out: Velvetleaf damage rating (100=total damage to plant; 0=no damage to plant)) was 0%. It also gave a pest or weed control at 15.625 g/ha ([9]; 15.625 g ai/ha, read-out: Foxtail, Giant damage rating (100=total damage to plant; 0=no damage to plant)) of 0%, a pest or weed control at 62.5 g/ha ([9]; 62.5 g ai/ha, 100=total damage to plant, 0=no damage to plant, read-out: plant damage rating, Foxtail, Giant) of 0% and a pest or weed control at 250 g/ha ([9]; 250 g ai/ha, read-out: Foxtail, Giant damage rating (100=total damage to plant; 0=no damage to plant)) of 0%. The pest or weed control at 15.625 g/ha ([10]; 15.625 g ai/ha, read-out: Pigweed, Redroot damage rating (100=total damage to plant; 0=no damage to plant)) was 0%, the pest or weed control at 62.5 g/ha ([10]; 62.5 g ai/ha, 100=total damage to plant, 0=no damage to plant, read-out: plant damage rating, Pigweed, Redroot) was 0% and the pest or weed control at 250 g/ha ([10]; 250 g ai/ha, read-out: Pigweed, Redroot damage rating (100=total damage to plant; 0=no damage to plant)) was 0%. For the same compound, the plant injury at 15.625 g/ha (corn (Zea mays) [11]; 15.625 g ai/ha, read-out: Corn damage rating (100=total damage to plant; 0=no damage to plant)) was 0%, the plant injury at 62.5 g/ha (corn (Zea mays) [11]; 62.5 g ai/ha, 100=total damage to plant, 0=no damage to plant, read-out: plant damage rating, Corn) was 0% and the plant injury at 250 g/ha (corn (Zea mays) [11]; 250 g ai/ha, read-out: Corn damage rating (100=total damage to plant; 0=no damage to plant)) was 0%. The pest or weed control at 15.625 g/ha ([12]; 15.625 g ai/ha, read-out: Barnyard grass damage rating (100=total damage to plant; 0=no damage to plant)) was 0%, the pest or weed control at 62.5 g/ha ([12]; 62.5 g ai/ha, 100=total damage to plant, 0=no damage to plant, read-out: plant damage rating, Barnyardgrass) was 0% and the pest or weed control at 250 g/ha ([12]; 250 g ai/ha, read-out: Barnyardgrass damage rating (100=total damage to plant; 0=no damage to plant)) was 0%.
